Measured values reported in US9889115B2, “Fitness assay and associated methods” (priority 1998, dated 2018).

Columns and labels:
wild-type HIV = test: wild-type antiretroviral activity (Table 4); settings: Human immunodeficiency virus 1, read-out: ID50
HIV-1BAL = test: PHA-PBMC assay, p24 Gag protein production; assay type: cell-based; settings: HIV-1Ba-L; PBMC/p24, day 7 (Table 8)
[1] = biological target: T1, wild-type HIV-1 (WT) protease (Human immunodeficiency virus type 1 group M subtype B, UniProt P04585); test: continuous fluorogenic HIV protease assay; assay type: biochemical; settings: WT (Table 7)
T1 construct: the proteases of wild-type HIV-1 (WT)
Protocol: (§1) This example describes the protocol for the sensitive continuous fluorogenic assay for HIV protease of the present invention and its application. […] The inhibition constant for wild-type HIV-1, Kimnt/Kiwt ratio, and vitality were measured.
(§2) The reaction was initiated by the addition of 5 μl of substrate stock solution in water. […] The initial rate of hydrolysis was calculated by second degree polynomial fit using SLM AB2 2.0 operating software.
(§3) For inhibition studies, inhibitors were prepared as stock solutions at different concentrations in dimethylsulfoxide. […] The reaction was initiated by the addition of 5 μl of substrate stock solution in water. For data analysis, the mathematical model for tight-binding inhibitors was used.

HIV-1LAI [2] = test: MT-2 cells, MTT assay; assay type: cell-based; settings: HIV-1LAI; MT-2/MTT, day 7
Protocol: All drug sensitivities were performed in triplicate. […] The IC50's were determined using the MTT assay on day 7 of culture. All sensitivities were determined in […].

HIV-1LAI [3] = test: PHA-PBMC assay, p24 Gag protein production; assay type: cell-based; settings: HIV-1LAI; PBMC/p24, day 7 (Table 8)
HIV-1 protease G48V/V82A = biological target: T2, HIV-1 protease G48V/V82A (Human immunodeficiency virus type 1 group M subtype B, UniProt P04585, G536V/V570A); test: continuous fluorogenic HIV protease assay; assay type: biochemical
T2 construct: proteases containing the deleterious drug resistance associated mutations V82F/I84V and G48V/V82A
Protocol: This example describes the protocol for the sensitive continuous fluorogenic assay for HIV protease of the present invention and its application. […] 21702-1201, upon written request. The inhibition constant for wild-type HIV-1, Kimnt/Kiwt ratio, and vitality were measured. (See Gulnik et al., Biochemistry, 34, 9282-9287 (1995). Protease activity was measured using the fluorgenic substrate Lys-Ala-Arg-Val-Tyr-Phe(NO2)-Glu-Ala-Nle-NH2 (Bachem Bioscience, Inc.). (See Peranteau et al., D.H. (1995) Anal. Biochem.).
The reaction was initiated by the addition of 5 μl of substrate stock solution in water. Increase in fluorescence intensity at the emission maximum of 306 nm (excitation wavelength was 277 nm) was monitored as a function of time using Aminco Bowman-2 luminescence spectrometer (SLM Instruments, Inc.). The initial rate of hydrolysis was calculated by second degree polynomial fit using SLM AB2 2.0 operating software.
as §3, with “used. (See Williams and Morrison (1979), In: Methods of Enzymol. 63, (ed. D. L. Purich), 437-467, Academic Press, NY, London). […]” for “used.”
This example describes the inhibitory activity of compounds 35 (FIG. 5A), 36 (FIG. 5B), 37 (FIG. 5C) and 38 (FIG. 5D). In accordance with the technique disclosed in Example 13 above, the inhibitory activity of these compounds was tested against proteases of the wild-type HIV-1. Compound 36, 37 and 38 were also tested against proteases containing the deleterious drug resistance associated mutations V82F/I84V and G48V/V82A. Fitness was determined in accordance with Example 13.

HIV-1 protease V82F/I84V [4] = biological target: T3, HIV-1 protease V82F/I84V (Human immunodeficiency virus type 1 group M subtype B, UniProt P04585, I572V/V570F); test: continuous fluorogenic HIV protease assay; assay type: biochemical; settings: V82F/I84V (Table 7)
T3 construct: the proteases of wild-type HIV-1 (WT) and various mutant enzymes
Protocol: as §1, §2, §3

HIV-1 protease V82F/I84V [5] = test: continuous fluorogenic HIV protease assay; assay type: biochemical
Protocol: as §1, §2, §3

Row | SMILES | IC50 (wild-type HIV) [nM] | IC50 (HIV-1BAL) [nM] | KI-wt/KI-mut [1] | Ki [1] [nM] | IC50 (HIV-1LAI [2]) [nM] | IC50 (HIV-1LAI [3]) [nM] | KI-wt/KI-mut (HIV-1 protease G48V/V82A; G48V/V82A) | Ki (HIV-1 protease G48V/V82A; G48V/V82A) [nM] | Fitness (HIV-1 protease G48V/V82A; G48V/V82A relative to WT) | Ki (HIV-1 protease V82F/I84V [4]) [nM] | KI-wt/KI-mut (HIV-1 protease V82F/I84V [5]; V82F/I84V (Table 7)) | Fitness (HIV-1 protease V82F/I84V [5]; V82F/I84V relative to WT (Table 7))
1 | COc1ccc(S(=O)(=O)N(CC(C)C)CC(O)C(Cc2ccccc2)NC(=O)OC2COC3OCCC23)cc1 (stereo not shown) | 1.4 |  |  |  |  |  |  |  |  |  |  | 
2 | CC(C)CN(C[C@@H](O)[C@H](Cc1ccccc1)NC(=O)O[C@H]1CO[C@H]2OCC[C@H]21)S(=O)(=O)c1ccc(CN)cc1 [Compound 35] |  | 13 | 1 | 0.081 | 28 | 20 |  |  |  |  |  | 
3 | CC(C)CN(C[C@@H](O)[C@H](Cc1ccccc1)NC(=O)O[C@H]1CO[C@H]2OCC[C@H]21)S(=O)(=O)c1cccc(O)c1 [Compound 36] |  | 38 |  | < 0.005 | 17 | 34 | >3.0 | 0.0153 | >0.8 | 0.0244 | >4.9 | >0.8
